Reference: US8110681B2, “Compounds for the treatment of spinal muscular atrophy and other uses” (The United States of America as represented by the …, priority 2006, dated 2012)
pEC50: −log10 of the molar value. Read-outs that look alike come from different tables or passages of the source.

Test system: SMN2-linked luciferase-reporter gene construct
Experiment: SMN splice reporter assay (SMN2-linked luciferase reporter, Example 10)
Assay type: cell-based
Settings: for maximal fold induction: read-out: SMN Splice Reporter Assay (Example 10) Avg MaxFold Increase
From the text: Cervical carcinoma cell lines were transformed with a SMN2-linked luciferase-reporter gene construct. The reporter is designed to detect shifts in the alternative splicing of SMN2 sequences. In particular, the reporter is constructed as a fusion of the alternatively spliced sequences of the SMN2 gene and the luciferase gene. Luciferase sequences are in the correct translational reading frame only when the SMN2 sequences are spliced according to the normal SMN1 mechanism (e.g., splicing to include exon 7), which allows for translation of the stable SMN protein. Compounds were tested in the assay by administering the compound to the cell line and detecting an increase in the luciferase activity. The assay is described in greater detail in Zhang et al., Gene Ther., 8, 1532-8 (2001). Compounds were administered as described in Lunn et al, Chem. & Biol, 11, 1489-1493 (2004).
The results are reported as a fold-increase over a baseline reading of transformed cells without any test compound.

[1] = SMN2-linked luciferase reporter, average
[2] = maximum fold increase of reporter signal, average
[3] = SMN2-linked luciferase reporter, average maximum fold increase

Compound	pEC50 [1]	maximal fold induction [2]	maximal fold induction [3]
CCOc1ccc2c(c1)CN(c1ccc(C(C)C(=O)O)cc1)C2=O (centres unmarked) [ALB-113649]		1.13	
CC(C(=O)OC(C)(C)C)c1ccc(N2Cc3ccc(-c4cccs4)cc3C2=O)cc1 (centres unmarked) [ALB-112474]		1.18	
CC(C(=O)O)c1ccc(N2Cc3ccccc3C2=O)cc1-c1cncnc1 (centres unmarked) [ALB-112232]		1.05	
CC(=O)c1cccc2c1C(=O)N(c1ccc(C(C)C(=O)O)cc1)C2 (centres unmarked) [ALB-113496]		1.18	
O=C1c2cc(Br)ccc2CN1c1ccc(C2CCCC2)cc1 [ALB-116072]	7.17		1.36
CC(C(=O)O)c1ccc(N2Cc3ccc(O)cc3C2=O)cc1 (centres unmarked) [ALB-113103]		1.04	
CC(C(=O)OC(C)(C)C)c1ccc(N2Cc3c(Cl)cccc3C2=O)cc1 (centres unmarked) [ALB-111760]		1.07	
CC(C(=O)O)c1ccc(N2Cc3cc(O)ccc3C2=O)cc1 (centres unmarked) [ALB-113560]		1.05	
CC(C)NC(=O)Nc1ccc2c(c1)C(=O)N(c1ccc(C(C)C)cc1)C2 [ALB-118559]			1.1
CC(C(=O)O)c1ccc(N2Cc3ccc(NC(=O)c4ccccc4)cc3C2=O)cc1 (centres unmarked) [ALB-111986]		1.06	
CC(C(=O)OC(C)(C)C)c1ccc(N2Cc3ccc(N(C)C(=O)c4ccc(Cl)cc4)cc3C2=O)cc1 (centres unmarked) [ALB-112167]		1.01	
O=C1c2ccccc2CN1c1ccc(C2CCCC2)cc1 [ALB-115068]	7.28	1.41	
O=C1c2ccccc2CN1c1ccc(C2(C(=O)O)CCCC2)cc1 [ALB-112431]		1.21	
Cc1ccc2c(c1)C(=O)N(c1ccc(C3CCCCC3)cc1)C2 [ALB-115717]		1.06	
COc1ccc(-c2cc(C(C)C(=O)OC(C)(C)C)ccc2N2Cc3ccccc3C2=O)cc1 (centres unmarked) [ALB-112082]		1.12	
CC(C(=O)OC(C)(C)C)c1ccc(N2Cc3cc(-c4ccc(Cl)cc4)ccc3C2=O)cc1 (centres unmarked) [ALB-111886]		1.07	

Compound	pEC50 [1]	maximal fold induction [2]	maximal fold induction [3]
CC(C(=O)OC(C)(C)C)c1ccc(N2Cc3c(cccc3-c3ccc(Cl)cc3)C2=O)cc1 (centres unmarked) [ALB-112190]		1.1	
Cc1ccc(N2Cc3cc4c(cc3C2=O)OCCO4)cc1 [ALB-116363]	7.62		1.54
COc1cccc2c1C(=O)N(c1ccc(C(C)C(=O)O)cc1)C2 (centres unmarked) [ALB-111957]		1.23	
CC(C(=O)OC(C)(C)C)c1ccc(N2Cc3ccccc3C2=O)c(Br)c1 (centres unmarked) [ALB-111998]		1.04	
CC(C(=O)O)c1ccc(N2Cc3ccccc3C2=O)c(-c2ccccc2)c1 (centres unmarked) [ALB-112165]		1.15	
CC(C(=O)O)c1ccc(N2Cc3c(C#N)cccc3C2=O)cc1 (centres unmarked) [ALB-112351]		1.21	
CC(C(=O)N1CCCCC1)c1ccc(N2Cc3ccccc3C2=O)cc1 (centres unmarked) [ALB-112078]		1.15	
CC(C(=O)O)c1ccc(N2Cc3c(cccc3-c3cccnc3)C2=O)cc1 (centres unmarked) [ALB-112224]		1.3	
CC(C)(C)OC(=O)C1(c2ccc(N3Cc4ccccc4C3=O)cc2)CC1 [ALB-112365]	4.91	1.5	
CC(C(=O)O)c1ccc(N2Cc3cc(OC4CCCC4)ccc3C2=O)cc1 (centres unmarked) [ALB-113963]		1.14	
CC(C(=O)O)c1ccc(N2Cc3ccc(-c4cncnc4)cc3C2=O)cc1 (centres unmarked) [ALB-112517]		1.25	
CC(C(=O)O)c1ccc(N2Cc3cc(-c4cccnc4)ccc3C2=O)cc1 (centres unmarked) [ALB-111889]		1.05	
CC(C#N)c1ccc(N2Cc3cc4c(cc3C2=O)OCCO4)cc1 (centres unmarked) [ALB-117571]	6.40		1.3
CC(C)c1cccc2c1C(=O)N(c1ccc(C(C)C(=O)O)cc1)C2 (centres unmarked) [ALB-113565]		1.19	
CC(C(=O)O)c1ccc(N2Cc3ccc(NS(C)(=O)=O)cc3C2=O)cc1 (centres unmarked) [ALB-112071]		1.07	

Second part, led by results:

pEC50 [1]	Compound	maximal fold induction [2]	maximal fold induction [3]
5.54	C=Cc1ccc2c(c1)C(=O)N(c1ccc(C(C)C(=O)OC(C)(C)C)cc1)C2 (centres unmarked) [ALB-113210]	1.15	
6.84	Cc1ccc(N2Cc3ccc(OC(F)F)cc3C2=O)cc1 [ALB-119515]		1.46
5.49	CCC(C(=O)OC(C)(C)C)c1ccc(N2Cc3ccccc3C2=O)cc1 (centres unmarked) [ALB-112364]	1.21	
7.80	CCCc1ccc(N2Cc3ccc(C)cc3C2=O)cc1 [ALB-116071]	1.35	
4.80	CCCc1cccc2c1C(=O)N(c1ccc(C(C)C(=O)O)cc1)C2 (centres unmarked) [ALB-113756]	1.33	
5.07	C[C@H](C(=O)O)c1ccc(N2Cc3ccccc3C2=O)cc1 [ALB-112837]	1.4	
7.28	C=Cc1ccc2c(c1)C(=O)N(c1ccc(C(C)C)cc1)C2 [ALB-115714]	1.37	
5.95	CC(C(=O)O)c1ccc(N2Cc3cccc(Cl)c3C2=O)cc1 (centres unmarked) [ALB-111784]	1.41	
5.18	CC(=O)Nc1ccc2c(c1)C(=O)N(c1ccc(C(C)C(=O)OC(C)(C)C)cc1)C2 (centres unmarked) [ALB-111960]	1.24	
6.74	COc1ccc2c(c1)C(=O)N(c1ccc(C(C)CO)cc1)C2 (centres unmarked) [ALB-114606]	1.31	
6.68	C=Cc1cccc2c1C(=O)N(c1ccc(C(C)C(=O)O)cc1)C2 (centres unmarked) [ALB-113393]	1.21	
7.66	O=C1c2cc(Br)ccc2CN1c1ccc(C2CC2)cc1 [ALB-115718]	1.32	
7.89	CC(C)Cc1ccc2c(c1)C(=O)N(c1ccc(C(C)C(=O)O)cc1)C2 (centres unmarked) [ALB-115426]	1.96	
6.04	CC(C(=O)O)c1ccc(N2Cc3cc(-c4cccs4)ccc3C2=O)cc1 (centres unmarked) [ALB-112063]	1.2	
6.03	CC(C)c1ccc(N2Cc3ccc(-c4ccccc4)cc3C2=O)cc1 [ALB-118037]	1.34	
5.69	CC(C(=O)O)c1ccc(N2Cc3ccc(C#N)cc3C2=O)cc1 (centres unmarked) [ALB-112478]	1.23	

pEC50 [1]	Compound	maximal fold induction [2]	maximal fold induction [3]
4.77	CC(C(=O)O)c1ccc(N2Cc3cccc(-c4ccc(Cl)cc4)c3C2=O)cc1 (centres unmarked) [ALB-112175]	1.37	
5.90	CC(C(=O)O)c1ccc(N2Cc3ccc(N)cc3C2=O)cc1 (centres unmarked) [ALB-111883a]	1.17	
7.24	CC(C(=O)O)c1ccc(N2Cc3ccc(N4CCCC4)cc3C2=O)cc1 (centres unmarked) [ALB-114739a]	1.55	
5.90	CC(C(=O)O)c1ccc(N2Cc3ccccc3C2=O)c(Br)c1 (centres unmarked) [ALB-112004]	1.08	
6.04	C/C=C\c1ccc2c(c1)C(=O)N(c1ccc(C(C)COC)cc1)C2 (centres unmarked) [ALB-114089]	1.55	
6.37	CC(=O)c1ccc(N2Cc3ccccc3C2=O)cc1 [ALB-112360]	1.14	
5.63	CC(C(=O)O)c1ccc(N2Cc3ccc(/C=C/C(F)(F)F)cc3C2=O)cc1 (centres unmarked) [ALB-115501]	1.39	
6.99	CCc1ccc2c(c1)C(=O)N(c1ccc(C(C)C(=O)O)cc1)C2 (centres unmarked) [ALB-113212]	1.87	
4.82	CCOc1cccc2c1C(=O)N(c1ccc(C(C)C(=O)O)cc1)C2 (centres unmarked) [ALB-113391]	1.46	
5.11	CC(C(=O)O)c1ccc(N2Cc3cc(-c4ccc(Cl)cc4)ccc3C2=O)cc1 (centres unmarked) [ALB-111890]	1.16	
5.85	CC(C(=O)O)c1ccc(N2C(=O)c3ccccc3C2C)cc1 (centres unmarked) [ALB-111964]	1.63	
6.67	CC(CF)c1ccc(N2Cc3ccccc3C2=O)cc1 (centres unmarked) [ALB-114090]	1.47	
6.13	CC(C)c1ccc(N2Cc3cccc(O)c3C2=O)cc1 [ALB-118158]		1.54
6.52	CC(CN)c1ccc(N2Cc3ccccc3C2=O)cc1 (centres unmarked) [ALB-114604]	1.39	
8.70	CC(C(=O)OC(C)(C)C)c1ccc(N2Cc3ccc(-c4cccnc4)cc3C2=O)cc1 (centres unmarked) [ALB-112473]	1.03	
